What was measured:
Assay in all cases: radiometric filter-binding kinase assay
LCK (mouse) = conditions: accession and sequence are those of the human protein
IKBKB (human) = IKBKB (human) (UniProt O14920)
CHEK1 (human) = CHEK1 (human) (UniProt O14757)
MELK (human) = MELK (human) (UniProt Q14680)
MAPK1 (human) = MAPK1 (human) (UniProt P28482)
ERBB4 (human) = ERBB4 (human) (UniProt Q15303)
CDK2 CCNA2 (human) = CDK2 CCNA2 (human) (UniProt P20248+P24941)
HIPK2 (human) = HIPK2 (human) (UniProt Q9H2X6)
GCK (human) = GCK (human) (UniProt Q12851)
GSK3B (human) = GSK3B (human) (UniProt P49841)
RIPK2 (human) = RIPK2 (human) (UniProt O43353)
NEK2 (human) = NEK2 (human) (UniProt P51955)
SRC (human) = SRC (human) (UniProt P12931)
BRSK2 (human) = BRSK2 (human) (UniProt Q8IWQ3)
PRKCZ (human) = PRKCZ (human) (UniProt Q05513)
BTK (human) = BTK (human) (UniProt Q06187)
CHEK2 (human) = CHEK2 (human) (UniProt O96017)
CaMK1 (human) = CaMK1 (human) (UniProt Q14012)
PLK1 (human) = PLK1 (human) (UniProt P53350)
INSR (human) = INSR (human) (UniProt P06213)
MARK2 (human) = MARK2 (human) (UniProt Q7KZI7)
MAPKAPK3 (human) = MAPKAPK3 (human) (UniProt Q16644)
MKNK2 (human) = MKNK2 (human) (UniProt Q9HBH9)
PHKG1 (human) = PHKG1 (human) (UniProt Q16816)
DYRK3 (human) = DYRK3 (human) (UniProt O43781)
MAP3K11 (human) = MAP3K11 (human) (UniProt Q16584)
YES1 (human) = YES1 (human) (UniProt P07947)
CSK (human) = CSK (human) (UniProt P41240)
IGF1R (human) = IGF1R (human) (UniProt P08069)
MAPK14 (human) = MAPK14 (human) (UniProt Q16539)

Chain of DYRK3 (human) (O43781 whole entry, looked up): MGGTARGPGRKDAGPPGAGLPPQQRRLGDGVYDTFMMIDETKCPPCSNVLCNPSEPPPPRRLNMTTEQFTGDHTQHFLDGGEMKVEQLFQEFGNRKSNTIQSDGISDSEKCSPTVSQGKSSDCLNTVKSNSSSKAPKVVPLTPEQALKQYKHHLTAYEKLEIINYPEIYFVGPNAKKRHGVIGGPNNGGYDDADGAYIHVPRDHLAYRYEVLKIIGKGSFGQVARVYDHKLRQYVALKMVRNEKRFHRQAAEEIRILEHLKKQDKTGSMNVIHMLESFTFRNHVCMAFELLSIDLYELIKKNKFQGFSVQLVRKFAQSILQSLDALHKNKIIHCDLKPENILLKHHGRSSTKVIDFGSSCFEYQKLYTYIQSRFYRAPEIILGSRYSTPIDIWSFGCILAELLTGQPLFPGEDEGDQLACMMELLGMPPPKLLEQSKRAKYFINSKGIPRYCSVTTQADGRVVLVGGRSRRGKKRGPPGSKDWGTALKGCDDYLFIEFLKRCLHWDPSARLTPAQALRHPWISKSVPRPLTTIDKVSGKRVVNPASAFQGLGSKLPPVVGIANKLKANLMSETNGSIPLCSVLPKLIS
Chain of CaMK1 (human) (Q14012 whole entry, looked up): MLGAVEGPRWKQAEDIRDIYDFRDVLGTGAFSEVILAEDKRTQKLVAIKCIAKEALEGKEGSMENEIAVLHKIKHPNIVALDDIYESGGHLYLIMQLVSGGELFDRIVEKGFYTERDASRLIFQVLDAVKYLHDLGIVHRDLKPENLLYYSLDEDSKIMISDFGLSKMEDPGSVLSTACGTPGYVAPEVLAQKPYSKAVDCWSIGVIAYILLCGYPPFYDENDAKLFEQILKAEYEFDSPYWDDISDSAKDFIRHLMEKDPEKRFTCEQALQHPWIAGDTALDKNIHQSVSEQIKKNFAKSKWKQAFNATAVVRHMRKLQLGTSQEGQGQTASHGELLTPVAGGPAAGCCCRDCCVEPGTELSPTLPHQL
Chain of CHEK1 (human) (O14757 whole entry, looked up): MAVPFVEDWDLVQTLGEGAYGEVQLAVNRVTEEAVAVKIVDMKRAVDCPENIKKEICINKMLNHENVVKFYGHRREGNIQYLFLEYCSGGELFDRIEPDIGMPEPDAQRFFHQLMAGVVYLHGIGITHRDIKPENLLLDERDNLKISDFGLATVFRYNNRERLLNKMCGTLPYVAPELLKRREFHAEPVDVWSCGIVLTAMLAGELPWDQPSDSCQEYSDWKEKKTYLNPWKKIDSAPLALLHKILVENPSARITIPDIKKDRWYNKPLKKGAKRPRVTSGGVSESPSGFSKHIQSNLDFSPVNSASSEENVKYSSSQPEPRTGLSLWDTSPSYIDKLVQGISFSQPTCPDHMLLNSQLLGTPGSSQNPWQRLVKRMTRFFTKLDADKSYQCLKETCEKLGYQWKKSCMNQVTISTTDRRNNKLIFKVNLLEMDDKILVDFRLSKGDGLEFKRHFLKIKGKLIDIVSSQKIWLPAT
Chain of CSK (human) (P41240 whole entry, looked up): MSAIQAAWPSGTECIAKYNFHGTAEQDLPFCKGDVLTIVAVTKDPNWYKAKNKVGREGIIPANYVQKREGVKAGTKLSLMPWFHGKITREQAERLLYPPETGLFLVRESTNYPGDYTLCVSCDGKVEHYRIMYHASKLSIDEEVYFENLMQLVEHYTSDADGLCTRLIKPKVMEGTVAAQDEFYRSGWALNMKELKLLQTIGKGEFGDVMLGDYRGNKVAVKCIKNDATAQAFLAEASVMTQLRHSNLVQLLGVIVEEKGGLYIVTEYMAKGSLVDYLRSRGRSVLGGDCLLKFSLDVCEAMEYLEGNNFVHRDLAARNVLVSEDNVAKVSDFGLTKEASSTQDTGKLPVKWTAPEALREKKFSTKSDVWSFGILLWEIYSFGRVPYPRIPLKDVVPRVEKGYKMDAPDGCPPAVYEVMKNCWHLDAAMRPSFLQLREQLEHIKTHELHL
Chain of PRKCZ (human) (Q05513 whole entry, looked up): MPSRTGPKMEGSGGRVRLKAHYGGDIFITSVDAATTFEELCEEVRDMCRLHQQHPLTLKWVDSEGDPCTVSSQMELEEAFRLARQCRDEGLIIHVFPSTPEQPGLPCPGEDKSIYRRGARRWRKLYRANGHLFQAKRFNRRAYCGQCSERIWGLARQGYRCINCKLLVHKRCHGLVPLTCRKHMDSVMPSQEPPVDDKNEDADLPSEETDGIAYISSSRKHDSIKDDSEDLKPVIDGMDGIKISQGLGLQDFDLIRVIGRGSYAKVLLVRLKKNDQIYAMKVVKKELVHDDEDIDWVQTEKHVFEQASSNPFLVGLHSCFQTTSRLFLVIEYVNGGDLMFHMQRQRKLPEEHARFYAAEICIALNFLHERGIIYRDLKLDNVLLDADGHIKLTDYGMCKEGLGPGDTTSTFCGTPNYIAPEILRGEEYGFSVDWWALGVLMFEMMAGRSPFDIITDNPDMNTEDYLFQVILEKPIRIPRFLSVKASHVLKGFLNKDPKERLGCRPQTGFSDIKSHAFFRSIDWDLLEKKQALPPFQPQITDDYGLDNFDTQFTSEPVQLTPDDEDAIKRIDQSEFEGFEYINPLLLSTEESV
Chain of GSK3B (human) (P49841 whole entry, looked up): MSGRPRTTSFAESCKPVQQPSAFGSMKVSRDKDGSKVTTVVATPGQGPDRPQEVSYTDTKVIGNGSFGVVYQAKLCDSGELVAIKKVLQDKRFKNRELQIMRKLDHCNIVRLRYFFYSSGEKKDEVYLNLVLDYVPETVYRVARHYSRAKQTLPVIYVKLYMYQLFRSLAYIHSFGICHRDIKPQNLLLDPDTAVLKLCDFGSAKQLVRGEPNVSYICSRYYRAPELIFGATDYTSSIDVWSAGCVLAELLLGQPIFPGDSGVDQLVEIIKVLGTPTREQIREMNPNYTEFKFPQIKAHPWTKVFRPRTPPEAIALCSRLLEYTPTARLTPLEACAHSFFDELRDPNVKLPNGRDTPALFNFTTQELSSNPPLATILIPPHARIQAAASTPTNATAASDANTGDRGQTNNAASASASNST
Chain of YES1 (human) (P07947 whole entry, looked up): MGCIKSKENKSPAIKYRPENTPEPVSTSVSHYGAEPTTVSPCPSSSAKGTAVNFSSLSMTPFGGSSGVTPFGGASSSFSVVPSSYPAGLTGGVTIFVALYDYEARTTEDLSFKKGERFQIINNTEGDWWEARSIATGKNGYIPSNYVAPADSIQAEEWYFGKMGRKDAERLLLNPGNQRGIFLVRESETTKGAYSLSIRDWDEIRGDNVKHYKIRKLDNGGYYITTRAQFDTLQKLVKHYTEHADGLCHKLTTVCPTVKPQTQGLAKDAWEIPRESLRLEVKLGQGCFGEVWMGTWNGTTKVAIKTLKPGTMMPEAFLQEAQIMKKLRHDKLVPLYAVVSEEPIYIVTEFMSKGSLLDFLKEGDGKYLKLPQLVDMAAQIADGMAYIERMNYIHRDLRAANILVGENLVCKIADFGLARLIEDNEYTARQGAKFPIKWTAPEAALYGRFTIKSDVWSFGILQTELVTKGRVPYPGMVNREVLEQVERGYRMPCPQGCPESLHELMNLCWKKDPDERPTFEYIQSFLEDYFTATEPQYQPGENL
Chain of IGF1R (human) (P08069 whole entry, looked up): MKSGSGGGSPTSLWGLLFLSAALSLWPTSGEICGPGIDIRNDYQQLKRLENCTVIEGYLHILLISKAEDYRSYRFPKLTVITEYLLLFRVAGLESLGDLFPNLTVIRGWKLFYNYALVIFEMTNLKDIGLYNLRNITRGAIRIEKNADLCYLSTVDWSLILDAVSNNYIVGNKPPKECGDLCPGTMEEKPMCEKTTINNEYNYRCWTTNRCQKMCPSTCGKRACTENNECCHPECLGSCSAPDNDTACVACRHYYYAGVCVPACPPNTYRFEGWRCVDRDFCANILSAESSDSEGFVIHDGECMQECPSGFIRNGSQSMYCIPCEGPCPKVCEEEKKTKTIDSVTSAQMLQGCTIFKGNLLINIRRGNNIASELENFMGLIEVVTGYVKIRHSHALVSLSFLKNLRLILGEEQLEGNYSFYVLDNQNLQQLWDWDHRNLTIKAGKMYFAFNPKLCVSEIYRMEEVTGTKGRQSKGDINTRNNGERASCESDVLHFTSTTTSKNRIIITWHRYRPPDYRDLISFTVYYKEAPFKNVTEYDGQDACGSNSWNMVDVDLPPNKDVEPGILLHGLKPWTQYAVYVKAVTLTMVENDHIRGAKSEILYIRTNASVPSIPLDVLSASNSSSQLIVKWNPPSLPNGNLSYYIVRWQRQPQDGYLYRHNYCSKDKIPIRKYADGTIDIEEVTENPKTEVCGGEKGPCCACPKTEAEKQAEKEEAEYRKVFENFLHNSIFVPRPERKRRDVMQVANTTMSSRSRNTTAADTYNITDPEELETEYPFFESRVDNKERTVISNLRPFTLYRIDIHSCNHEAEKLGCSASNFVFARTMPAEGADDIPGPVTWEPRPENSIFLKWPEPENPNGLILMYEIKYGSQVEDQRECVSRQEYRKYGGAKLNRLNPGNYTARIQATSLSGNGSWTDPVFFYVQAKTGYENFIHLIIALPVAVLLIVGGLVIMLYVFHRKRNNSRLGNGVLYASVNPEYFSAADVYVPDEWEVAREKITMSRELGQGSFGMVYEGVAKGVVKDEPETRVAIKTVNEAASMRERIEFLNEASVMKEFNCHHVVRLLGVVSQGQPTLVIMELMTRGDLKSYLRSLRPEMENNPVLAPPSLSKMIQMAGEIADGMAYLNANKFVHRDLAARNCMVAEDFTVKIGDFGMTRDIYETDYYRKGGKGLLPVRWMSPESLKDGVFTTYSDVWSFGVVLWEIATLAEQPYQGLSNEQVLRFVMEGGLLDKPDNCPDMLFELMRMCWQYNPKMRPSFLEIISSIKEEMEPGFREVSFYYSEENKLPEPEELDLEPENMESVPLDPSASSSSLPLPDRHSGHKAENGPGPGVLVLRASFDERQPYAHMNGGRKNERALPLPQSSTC

For `CNc1nc(-c2ccc3c(N)n[nH]c3c2)cc(N2C[C@@H](C(=O)NC3CCCCC3)CC[C@H]2C)n1`, which residual activity (LCK (mouse); compound 0.01 µM) is on record?
Its residual activity is 112%.

And the residual activity (LCK (mouse); compound 0.1 µM)?
Its residual activity is 107%.

What about the residual activity (LCK (mouse); compound 1.0 µM) of the same compound?
Its residual activity is 114%.

What about the residual activity (IKBKB (human); compound 0.01 µM) of the same compound?
Its residual activity is 105%.

What about the residual activity (IKBKB (human); compound 0.1 µM) of the same compound?
The residual activity was 112%.

What about the residual activity (IKBKB (human); compound 1.0 µM) of the same compound?
Its residual activity is 98%.

And the residual activity (CHEK1 (human); compound 0.01 µM)?
The residual activity was 111%.

What about the residual activity (CHEK1 (human); compound 0.1 µM) of the same compound?
Its residual activity is 106%.

What about the residual activity (CHEK1 (human); compound 1.0 µM) of the same compound?
Its residual activity is 104%.

And the residual activity (MELK (human); compound 0.01 µM)?
The residual activity was 115%.

And the residual activity (MELK (human); compound 0.1 µM)?
Its residual activity is 77%.

And the residual activity (MELK (human); compound 1.0 µM)?
Its residual activity is 23%.

What about the residual activity (MAPK1 (human); compound 0.01 µM) of the same compound?
The residual activity was 117%.

What about the residual activity (MAPK1 (human); compound 0.1 µM) of the same compound?
Its residual activity is 111%.

And the residual activity (MAPK1 (human); compound 1.0 µM)?
Its residual activity is 99%.

What about the residual activity (ERBB4 (human); compound 0.01 µM) of the same compound?
The residual activity was 106%.

What about the residual activity (ERBB4 (human); compound 0.1 µM) of the same compound?
The residual activity was 107%.

And the residual activity (ERBB4 (human); compound 1.0 µM)?
The residual activity was 106%.

What about the residual activity (CDK2 CCNA2 (human); compound 0.01 µM) of the same compound?
Its residual activity is 104%.

And the residual activity (CDK2 CCNA2 (human); compound 0.1 µM)?
Its residual activity is 101%.

What about the residual activity (CDK2 CCNA2 (human); compound 1.0 µM) of the same compound?
The residual activity was 105%.

And the residual activity (HIPK2 (human); compound 0.01 µM)?
The residual activity was 119%.

What about the residual activity (HIPK2 (human); compound 0.1 µM) of the same compound?
The residual activity was 124%.

What about the residual activity (HIPK2 (human); compound 1.0 µM) of the same compound?
The residual activity was 113%.

What about the residual activity (GCK (human); compound 0.01 µM) of the same compound?
The residual activity was 109%.

What about the residual activity (GCK (human); compound 0.1 µM) of the same compound?
The residual activity was 116%.

And the residual activity (GCK (human); compound 1.0 µM)?
Its residual activity is 101%.

And the residual activity (GSK3B (human); compound 0.01 µM)?
Its residual activity is 108%.

What about the residual activity (GSK3B (human); compound 0.1 µM) of the same compound?
The residual activity was 111%.

And the residual activity (GSK3B (human); compound 1.0 µM)?
Its residual activity is 109%.

What about the residual activity (RIPK2 (human); compound 0.01 µM) of the same compound?
The residual activity was 110%.

What about the residual activity (RIPK2 (human); compound 0.1 µM) of the same compound?
Its residual activity is 114%.

What about the residual activity (RIPK2 (human); compound 1.0 µM) of the same compound?
Its residual activity is 107%.

What about the residual activity (NEK2 (human); compound 0.01 µM) of the same compound?
Its residual activity is 118%.

What about the residual activity (NEK2 (human); compound 0.1 µM) of the same compound?
The residual activity was 118%.

What about the residual activity (NEK2 (human); compound 1.0 µM) of the same compound?
The residual activity was 106%.

What about the residual activity (SRC (human); compound 0.01 µM) of the same compound?
The residual activity was 101%.

And the residual activity (SRC (human); compound 0.1 µM)?
Its residual activity is 105%.

What about the residual activity (SRC (human); compound 1.0 µM) of the same compound?
The residual activity was 97%.

What about the residual activity (BRSK2 (human); compound 0.01 µM) of the same compound?
The residual activity was 114%.

What about the residual activity (BRSK2 (human); compound 0.1 µM) of the same compound?
Its residual activity is 110%.

What about the residual activity (PRKCZ (human); compound 0.01 µM) of the same compound?
Its residual activity is 113%.

And the residual activity (PRKCZ (human); compound 0.1 µM)?
The residual activity was 105%.

And the residual activity (PRKCZ (human); compound 1.0 µM)?
The residual activity was 72%.

And the residual activity (BTK (human); compound 0.01 µM)?
The residual activity was 126%.

What about the residual activity (BTK (human); compound 0.1 µM) of the same compound?
Its residual activity is 121%.

What about the residual activity (BTK (human); compound 1.0 µM) of the same compound?
Its residual activity is 110%.

And the residual activity (CHEK2 (human); compound 0.01 µM)?
The residual activity was 129%.

And the residual activity (CHEK2 (human); compound 0.1 µM)?
The residual activity was 121%.

And the residual activity (CaMK1 (human); compound 0.01 µM)?
The residual activity was 108%.

And the residual activity (CaMK1 (human); compound 0.1 µM)?
Its residual activity is 112%.

And the residual activity (CaMK1 (human); compound 1.0 µM)?
The residual activity was 117%.

What about the residual activity (PLK1 (human); compound 0.01 µM) of the same compound?
Its residual activity is 95%.

And the residual activity (PLK1 (human); compound 0.1 µM)?
The residual activity was 113%.

And the residual activity (INSR (human); compound 0.01 µM)?
The residual activity was 101%.

What about the residual activity (INSR (human); compound 0.1 µM) of the same compound?
Its residual activity is 103%.

And the residual activity (INSR (human); compound 1.0 µM)?
Its residual activity is 102%.

And the residual activity (MARK2 (human); compound 0.01 µM)?
The residual activity was 113%.

What about the residual activity (MARK2 (human); compound 0.1 µM) of the same compound?
Its residual activity is 114%.

And the residual activity (MARK2 (human); compound 1.0 µM)?
Its residual activity is 109%.

What about the residual activity (MAPKAPK3 (human); compound 0.01 µM) of the same compound?
Its residual activity is 112%.

And the residual activity (MAPKAPK3 (human); compound 0.1 µM)?
The residual activity was 112%.

And the residual activity (MAPKAPK3 (human); compound 1.0 µM)?
The residual activity was 100%.

What about the residual activity (MKNK2 (human); compound 0.01 µM) of the same compound?
Its residual activity is 91%.

What about the residual activity (MKNK2 (human); compound 0.1 µM) of the same compound?
Its residual activity is 100%.

What about the residual activity (MKNK2 (human); compound 1.0 µM) of the same compound?
Its residual activity is 106%.

What about the residual activity (PHKG1 (human); compound 0.01 µM) of the same compound?
Its residual activity is 106%.

And the residual activity (PHKG1 (human); compound 0.1 µM)?
The residual activity was 108%.

What about the residual activity (PHKG1 (human); compound 1.0 µM) of the same compound?
The residual activity was 103%.

What about the residual activity (DYRK3 (human); compound 0.01 µM) of the same compound?
The residual activity was 100%.

And the residual activity (DYRK3 (human); compound 0.1 µM)?
Its residual activity is 103%.

And the residual activity (DYRK3 (human); compound 1.0 µM)?
Its residual activity is 93%.

What about the residual activity (MAP3K11 (human); compound 0.01 µM) of the same compound?
The residual activity was 100%.

What about the residual activity (MAP3K11 (human); compound 0.1 µM) of the same compound?
The residual activity was 110%.

And the residual activity (MAP3K11 (human); compound 1.0 µM)?
Its residual activity is 87%.

What about the residual activity (YES1 (human); compound 0.01 µM) of the same compound?
The residual activity was 122%.

And the residual activity (YES1 (human); compound 0.1 µM)?
The residual activity was 119%.

And the residual activity (YES1 (human); compound 1.0 µM)?
The residual activity was 101%.

What about the residual activity (CSK (human); compound 0.01 µM) of the same compound?
Its residual activity is 103%.

What about the residual activity (CSK (human); compound 0.1 µM) of the same compound?
Its residual activity is 104%.

And the residual activity (CSK (human); compound 1.0 µM)?
Its residual activity is 100%.

What about the residual activity (IGF1R (human); compound 0.01 µM) of the same compound?
The residual activity was 126%.

And the residual activity (IGF1R (human); compound 0.1 µM)?
Its residual activity is 115%.

What about the residual activity (IGF1R (human); compound 1.0 µM) of the same compound?
The residual activity was 107%.

And the residual activity (MAPK14 (human); compound 0.01 µM)?
The residual activity was 105%.

What about the residual activity (MAPK14 (human); compound 0.1 µM) of the same compound?
The residual activity was 109%.

And the residual activity (MAPK14 (human); compound 1.0 µM)?
The residual activity was 103%.
